Measurements from patent US9415055B2, “Cyclic amines” (H. Lundbeck A/S, priority 2012, dated 2016).

These compounds were tested against P2X7 receptor (Homo sapiens (Human), UniProt Q99572) (assay: P2X7 FLIPR assay: antagonism of BzATP response in 293 HEK cells stably expressing P2X7 receptor). Details: FLIPR fluorescence (Fluo-4), agonist BzATP, 293 HEK cells stably transfected with P2X7 receptor.
Format: cell-based
Description: Cells were plated to cell density of approximately 15,000 cells/well in 384-well assay plates (50 μl/well) with 1.5% low serum media (DMEM, 1.5% BCS, 1% L-glut (2 mM), 1% P/S).
Cells were plated to cell density of approximately 15,000 cells/well in 384-well assay plates (50 μl/well) with 1.5% low serum media (DMEM, 1.5% FBS, 1% L-glut (2 mM), 10 mM HEPES, 1% P/S). Cells were plated 24 hours prior to assay. Cells expressing human, rat or mouse P2X7 receptor were assayed in the following manner.
Fluo-4 NW dye mix (Molecular Probes, Inc., Eugene, Oreg., USA) was prepared in buffer (see manufacturer's instructions). Cell plates were removed from the 37° C. incubator, the media discarded and then 30 μL of dye was added to each well. Plates were placed in the 37° C., non-CO2 incubator for 30 minutes and then room temperature for 30 minutes.
Compound mixtures (A) were added to assay plates containing cells and placed at room temperature for 30 minutes, then BzATP (B) was added. Fluorescence was read using the Tetra FLIPR® (Molecular Devices, Inc., Sunnyvale, Calif., USA) and IC50 values were calculated by standard methods to determine antagonist activity.

Chain of P2X7 receptor (Q99572 whole entry): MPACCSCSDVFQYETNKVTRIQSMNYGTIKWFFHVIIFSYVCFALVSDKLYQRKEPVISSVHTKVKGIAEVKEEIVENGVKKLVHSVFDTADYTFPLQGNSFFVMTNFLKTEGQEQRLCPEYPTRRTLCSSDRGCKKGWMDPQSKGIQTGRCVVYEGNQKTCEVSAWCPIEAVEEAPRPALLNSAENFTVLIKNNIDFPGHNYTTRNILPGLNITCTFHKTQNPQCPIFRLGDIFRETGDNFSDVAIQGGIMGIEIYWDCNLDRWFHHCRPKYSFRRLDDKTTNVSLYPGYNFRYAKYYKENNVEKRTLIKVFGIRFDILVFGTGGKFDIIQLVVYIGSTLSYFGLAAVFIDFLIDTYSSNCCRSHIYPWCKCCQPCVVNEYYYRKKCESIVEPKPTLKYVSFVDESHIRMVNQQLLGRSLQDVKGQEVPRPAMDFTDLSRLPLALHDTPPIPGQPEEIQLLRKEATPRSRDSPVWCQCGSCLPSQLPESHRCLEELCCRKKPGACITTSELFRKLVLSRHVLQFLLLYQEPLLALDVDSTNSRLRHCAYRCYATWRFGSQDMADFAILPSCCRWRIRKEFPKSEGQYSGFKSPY

Compound	IC50 [nM]
Cn1cc(C(CNC(=O)c2ccccc2Cl)N2CCC(F)(F)CC2)cn1 (single isomer, unassigned; (+)) [(+)2-chloro-N-[2-(4,4-difluoro-1-piperidyl)-2-(1-methylpyraz] [(+)2-chloro-N-(2-(4,4-difluoropiperidin-1-yl)-2-(1-methyl-1H-pyrazol-4-yl)ethyl)benzamide]	180
CCc1ncc(C(CNC(=O)c2c(F)cccc2Cl)N2CCC(F)(F)CC2)cn1 (single isomer, unassigned; (+)) [(+)2-chloro-N-[2-(4,4-difluoro-1-piperidyl)-2-(2-ethylpyrimi] [(+)2-chloro-6-fluoro-N-(2-(4,4-difluoropiperidin-1-yl)-2-(2-ethylpyrimidin-5-yl)ethyl)benzamide]	14
CCc1ncc(C(CNC(=O)c2ccccc2Cl)N2CCC(F)(F)CC2)cn1 (single isomer, unassigned; (+)) [(+)2-chloro-N-[2-(4,4-difluoro-1-piperidyl)-2-(2-ethylpyrimi] [(+)2-chloro-N-(2-(4,4-difluoropiperidin-1-yl)-2-(2-ethylpyrimidin-5-yl)ethyl)benzamide]	12
Cc1ncc(C(CNC(=O)c2cccc(F)c2Cl)N2CCC(F)(F)CC2)cn1 (single isomer, unassigned; (+)) [(+)2-chloro-N-[2-(4,4-difluoro-1-piperidyl)-2-(2-methylpyrim] [(+)2-chloro-3-fluoro-N-(2-(4,4-difluoropiperidin-1-yl)-2-(2-methylpyrimidin-5-yl)ethyl)benzamide]	15
COc1cccc(C(=O)NCC(c2cnc(C)nc2)N2CCC(F)(F)CC2)c1Cl (single isomer, unassigned; (+)) [(+)2-chloro-N-[2-(4,4-difluoro-1-piperidyl)-2-(2-methylpyrim] [(+)2-chloro-3-methoxy-N-(2-(4,4-difluoropiperidin-1-yl)-2-(2-methylpyrimidin-5-yl)ethyl)benzamide]	12
Cc1ncc(C(CNC(=O)c2c(F)cccc2Cl)N2CCC(F)(F)CC2)cn1 (single isomer, unassigned; (+)) [(+)2-chloro-N-[2-(4,4-difluoro-1-piperidyl)-2-(2-methylpyrim] [(+)2-chloro-6-fluoro-N-(2-(4,4-difluoropiperidin-1-yl)-2-(2-methylpyrimidin-5-yl)ethyl)benzamide]	19
Cc1ncc(C(CNC(=O)c2cccc(OC(F)(F)F)c2Cl)N2CCC(F)(F)CC2)cn1 (single isomer, unassigned; (+)) [(+)2-chloro-N-[2-(4,4-difluoro-1-piperidyl)-2-(2-methylpyrim] [(+)2-chloro-N-(2-(4,4-difluoropiperidin-1-yl)-2-(2-methylpyrimidin-5-yl)ethyl)-3-(trifluoromethoxy)benzamide]	21
Cc1ncc(C(CNC(=O)c2ccccc2Cl)N2CCC(F)(F)CC2)cn1 (single isomer, unassigned; (+)) [(+)2-chloro-N-[2-(4,4-difluoro-1-piperidyl)-2-(2-methylpyrim] [(+)2-chloro-N-[2-(4,4-difluoro-1-piperidyl)-2-(2-methylpyrimidin-5-yl)ethyl]benzamide]	13
Cc1ccc(C(CNC(=O)c2cccc(F)c2Cl)N2CCC(F)(F)CC2)cn1 (single isomer, unassigned; (+)) [(+)2-chloro-N-[2-(4,4-difluoro-1-piperidyl)-2-(6-methyl-3-py] [(+)2-chloro-3-fluoro-N-(2-(4,4-difluoropiperidin-1-yl)-2-(2-methylpyridin-5-yl)ethyl)benzamide]	33
Cc1ccc(C(CNC(=O)c2c(F)cccc2Cl)N2CCC(F)(F)CC2)cn1 (single isomer, unassigned; (+)) [(+)2-chloro-N-[2-(4,4-difluoro-1-piperidyl)-2-(6-methyl-3-py] [(+)2-chloro-N-(2-(4,4-difluoropiperidin-1-yl)-2-(6-methylpyridin-3-yl)ethyl)-6-fluorobenzamide]	110
COc1ccc(C(=O)NCC(c2cnc(C(F)(F)F)nc2)N2CCC(F)(F)CC2)c(Cl)c1OC (single isomer, unassigned; (+)) [(+)2-chloro-N-[2-(4,4-difluoro-1-piperidyl)-2-[2-(trifluorom] [(+)2-chloro-3,4-dimethoxy-N-(2-(4,4-difluoropiperidin-1-yl)-2-(2-(trifluoromethyl)pyrimidin-5-yl)ethyl)benzamide]	14
O=C(NCC(c1cnc(C(F)(F)F)nc1)N1CCC(F)(F)CC1)c1c(F)cc(F)cc1Cl (single isomer, unassigned; (+)) [(+)2-chloro-N-[2-(4,4-difluoro-1-piperidyl)-2-[2-(trifluorom] [(+)2-chloro-4,6-difluoro-N-(2-(4,4-difluoropiperidin-1-yl)-2-(2-(trifluoromethyl)pyrimidin-5-yl)ethyl)benzamide]	9.4
O=C(NCC(c1cnc(C(F)(F)F)nc1)N1CCC(F)(F)CC1)c1c(F)cccc1Cl (single isomer, unassigned; (+)) [(+)2-chloro-N-[2-(4,4-difluoro-1-piperidyl)-2-[2-(trifluorom] [(+)2-chloro-6-fluoro-N-(2-(4,4-difluoropiperidin-1-yl)-2-(2-(trifluoromethyl)pyrimidin-5-yl)ethyl)benzamide]	8.3
O=C(NCC(c1cnc(C(F)(F)F)nc1)N1CCC(F)(F)CC1)c1cccc(F)c1Cl (single isomer, unassigned; (+)) [(+)2-chloro-N-[2-(4,4-difluoro-1-piperidyl)-2-[2-(trifluorom] [(+)2-chloro-N-(2-(4,4-difluoropiperidin-1-yl)-2-(2-(trifluoromethyl)pyrimidin-5-yl)ethyl)-3-fluorobenzamide]	1.7

Further lines, results first:

IC50 [nM]	Compound
3.6	COc1cccc(C(=O)NCC(c2cnc(C(F)(F)F)nc2)N2CCC(F)(F)CC2)c1Cl (single isomer, unassigned; (+)) [(+)2-chloro-N-[2-(4,4-difluoro-1-piperidyl)-2-[2-(trifluorom] [(+)2-chloro-N-(2-(4,4-difluoropiperidin-1-yl)-2-(2-(trifluoromethyl)pyrimidin-5-yl)ethyl)-3-methoxybenzamide]
8.9	COc1ccc(F)c(C(=O)NCC(c2cnc(C(F)(F)F)nc2)N2CCC(F)(F)CC2)c1Cl (single isomer, unassigned; (+)) [(+)2-chloro-N-[2-(4,4-difluoro-1-piperidyl)-2-[2-(trifluorom] [(+)2-chloro-N-(2-(4,4-difluoropiperidin-1-yl)-2-(2-(trifluoromethyl)pyrimidin-5-yl)ethyl)-6-fluoro-3-methoxybenzamide]
1.7	O=C(NCC(c1ccc(C(F)(F)F)nc1)N1CCC(F)(F)CC1)c1cccc(F)c1Cl (single isomer, unassigned; (+)) [(+)2-chloro-N-[2-(4,4-difluoro-1-piperidyl)-2-[6-(trifluorom] [(+)2-chloro-N-(2-(4,4-difluoropiperidin-1-yl)-2-(2-(trifluoromethyl)pyridin-5-yl)ethyl)-3-fluorobenzamide]
4.2	COc1cccc(C(=O)NCC(c2ccc(Cl)cc2)N2CCOCC2)c1Cl (single isomer, unassigned; (+)) [(+)2-chloro-N-[2-(4-chlorophenyl)-2-morpholino-ethyl]-3-meth] [(+)2-chloro-N-(2-(4-chlorophenyl)-2-morpholinoethyl)-3-methoxybenzamide]
23	N#Cc1ccc(Cl)c(C(=O)NCC(c2ccc(Cl)cc2)N2CCOCC2)c1 (single isomer, unassigned; (+)) [(+)2-chloro-N-[2-(4-chlorophenyl)-2-morpholino-ethyl]-5-cyan] [(+)2-chloro-N-(2-(4-chlorophenyl)-2-morpholinoethyl)-5-cyanobenzamide]
180	CS(=O)(=O)c1ccc(Cl)c(C(=O)NCC(c2ccc(Cl)cc2)N2CCOCC2)c1 (single isomer, unassigned; (+)) [(+)2-chloro-N-[2-(4-chlorophenyl)-2-morpholino-ethyl]-5-meth] [(+)2-chloro-N-(2-(4-chlorophenyl)-2-morpholinoethyl)-5-(methylsulfonyl)benzamide]
50	Cc1ncc(C(CNC(=O)c2ccccc2Cl)N2CCC(F)CC2)cn1 (single isomer, unassigned; (+)) [(+)2-chloro-N-[2-(4-fluoro-1-piperidyl)-2-(2-methylpyrimidin] [(+)2-chloro-N-(2-(4-fluoropiperidin-1-yl)-2-(2-methylpyrimidin-5-yl)ethyl)benzamide]
15	O=C(NCC(c1cnc(C(F)(F)F)nc1)N1CCC(F)CC1)c1ccccc1Cl (single isomer, unassigned; (+)) [(+)2-chloro-N-[2-(4-fluoro-1-piperidyl)-2-[2-(trifluoromethy] [(+)2-chloro-N-(2-(4-fluoropiperidin-1-yl)-2-(2-(trifluoromethyl)pyrimidin-5-yl)ethyl)benzamide]
4.8	O=C(NCC(c1cnc(C(F)F)nc1)N1CCOCC1)c1cccc(F)c1Cl (single isomer, unassigned; (+)) [(+)2-chloro-N-[2-[2-(difluoromethyl)pyrimidin-5-yl]-2-morpho] [(+)2-chloro-3-fluoro-N-(2-(2-(difluoromethyl)pyrimidin-5-yl)-2-morpholinoethyl)benzamide]
60	O=C(NCC(c1cnc(C(F)F)nc1)N1CCOCC1)c1ccccc1Cl (single isomer, unassigned; (+)) [(+)2-chloro-N-[2-[2-(difluoromethyl)pyrimidin-5-yl]-2-morpho] [(+)2-chloro-N-(2-(2-(difluoromethyl)pyrimidin-5-yl)-2-morpholinoethyl)benzamide]
